# Laboratory results reported in US20060069155A1, “Method for reducing exacerbations associated with COPD” (priority 2000, published 2006).
# “Also recorded” adds a separate entry of the source.
# Tests used:
# [1] = test system: COPD exacerbations in patients with COPD; experiment: Clinical Study A: placebo-controlled, double-blind 6-month study of Ariflo 15 mg BID in COPD patients; assay type: in vivo, human; details: for Number of Patients Exacerbation-free / Estimated Percentage Exacerbation-Free (Exacerbation-free Survival Rate): 24 weeks, ITT, 15 mg BID; for Estimated Percentage Exacerbation-Free (Exacerbation-free Survival Rate): Kaplan-Meier estimate
# From the text: (§1) Acute COPD exacerbations, defined as worsening of COPD symptoms that required changes in treatment including antimicrobial therapy, a short course of oral corticosteroids or other bronchodilator therapy. Exacerbations were categorized to three levels: • Level 1: self-managed by the patient at home by increasing usual medication for COPD. • Level 2: requiring additional treatment prescribed by a family or primary care physician or as a result of a hospital outpatient visit including a visit to the Emergency Room. • Level 3: requiring the patient to be admitted to the hospital for treatment. Clinical trials in COPD patients were carried out to investigate the efficacy of an 15 mg immediate release tablet, BID of Ariflo. […] In each of the studies, patients with COPD entered a 4-week placebo run-in period and were then randomized to receive Ariflo 15 mg twice daily or placebo in a ratio of 2 to 1. Patients were monitored following 1, 2 and 4 weeks of treatment and subsequently at 4-week intervals. Patients were permitted to receive concomitant salbutamol (prn) and/or short acting anticholinergic therapy at a stable dose during these studies. Pulmonary function measurements were performed at each visit (with the exception of Week 1). The St. George's Respiratory Questionnaire (SGRQ) was administered at Baseline, and Weeks 12 and 24 (or at the time of withdrawal). Routine compliance, vital sign, and laboratory assessments were performed at each visit. These studies included frequent ECG assessments and extensive monitoring of patients reporting gastrointestinal adverse experiences of potential clinical concern to address concerns about possible effects of SB 207499 on both cardiovascular and gastrointestinal body systems. 12-lead ECG assessments were conducted at screening, prior to dosing at Baseline, and prior to dosing at each visit during the double-blind treatment period. In addition, 12-lead ECGs were performed 3 hours after the administration of drug on the first and last day of dosing. In a subset of patients, 24-hour Holter ECG monitoring was conducted during Run-in and at Weeks 1 and 20. Orthostatic vital signs and faecal occult blood tests were determined for all patients in order to obtain a general incidence of abnormal assessments in this patient population. Orthostatic vital signs were determined at Screening, Baseline and the end of double-blind treatment. Faecal occult blood tests were performed between Screening and Baseline and between 20 weeks and the end of double-blind treatment (24 weeks).
# [2] = test system: COPD exacerbations in patients with COPD; experiment: Clinical Study B: placebo-controlled, double-blind study of Ariflo 15 mg BID in COPD patients; assay type: in vivo, human; details: for Number of Patients Exacerbation-free / Estimated Percentage Exacerbation-Free (Exacerbation-free Survival Rate): 24 weeks, ITT, 15 mg BID; for Estimated Percentage Exacerbation-Free (Exacerbation-free Survival Rate): Kaplan-Meier estimate
# From the text: as §1, with “studies. Study B included a 2-week, randomised, double-blind, run-out phase to examine the effects of discontinuation of treatment. Patients who received Ariflo during the initial 24 week period, were randomized (1:1 ratio) to Ariflo 15 mg BID or placebo for the run-out phase; patients who received placebo during the initial 24 weeks, continued on placebo during the run-out phase.” for “studies.”
# [3] = test system: COPD exacerbations in patients with COPD; experiment: Clinical Study C: placebo-controlled, double-blind 6-month study of Ariflo 15 mg BID in COPD patients; assay type: in vivo, human; details: for Number of Patients Exacerbation-free / Estimated Percentage Exacerbation-Free (Exacerbation-free Survival Rate): 24 weeks, ITT, 15 mg BID; for Estimated Percentage Exacerbation-Free (Exacerbation-free Survival Rate): Kaplan-Meier estimate
# From the text: as §1
# [4] = targeted for the treatment of multi-infarct dementia; 'may include'; cited from earlier work
# [5] = developed as an antidepressant; cited from earlier work
# [6] = 15 mg immediate release tablet BID
smiles,measurement,setting,value
"COc1ccc([C@]2(C#N)CC[C@@H](C(=O)O)CC2)cc1OC1CCCC1 [SB207499, cis-4-cyano-4-[3-(cyclopentyloxy)-4-methoxyphenyl]cyclohexane-1-carboxylic acid]",estimated percentages of patients exacerbation-free compared to placebo,"[1]; 15 mg IR tablet BID, P=0.008",significantly greater
same,incidence of all categories of exacerbations and of more severe exacerbations (Levels 2 and 3) versus placebo,[1]; [6],lower incidence
same,reduction of the risk of an exacerbation requiring treatment by a physician or hospitalization,"[1]; 15 mg immediate release tablet BID, Kaplan-Meier estimates, P=0.001",45%
same,reduction of the risk of having an exacerbation relative to placebo,"[1]; 15 mg immediate release tablet BID, Kaplan-Meier estimates, P=0.002",39%
same,Number of Patients Exacerbation-free,"[1]; All Exacerbations, of 431 patients",336
same,Estimated Percentage Exacerbation-Free (Exacerbation-free Survival Rate),"[1]; All Exacerbations, placebo 62.4",74.0%
same,Number of Patients Exacerbation-free,[1]; Level 2 and 3 Exacerbations,364
same,Estimated Percentage Exacerbation-Free (Exacerbation-free Survival Rate),"[1]; Level 2 and 3 Exacerbations, placebo 69.7",81.7%
same,estimated percentages of patients exacerbation-free compared to placebo,"[2]; 15 mg IR tablet BID, P=0.004",significantly greater
same,incidence of all categories of exacerbations and of more severe exacerbations (Levels 2 and 3) versus placebo,[2]; [6],lower incidence
same,Number of Patients Exacerbation-free,"[2]; All Exacerbations, of 469 patients",318
same,Estimated Percentage Exacerbation-Free (Exacerbation-free Survival Rate),"[2]; All Exacerbations, placebo 51.1",63.9%
same,Number of Patients Exacerbation-free,[2]; Level 2 and 3 Exacerbations,367
same,Estimated Percentage Exacerbation-Free (Exacerbation-free Survival Rate),"[2]; Level 2 and 3 Exacerbations, placebo 64.3",75.5%
same,reduction of the risk of an exacerbation requiring treatment by a physician or hospitalization (Levels 2 and 3),"[2]; over 26 weeks, P=0.004",32%
same,reduction of the risk of having an exacerbation relative to placebo,"[2]; over 26 weeks, P=0.005",30%
same,affect on exacerbations,[3]; 15 mg BID over 6 months,marginal
same,efficacy in treating COPD,[3]; 15 mg BID over 6 months,equivocal
same,Number of Patients Exacerbation-free,"[3]; All Exacerbations, of 474 patients",299
same,Estimated Percentage Exacerbation-Free (Exacerbation-free Survival Rate),"[3]; All Exacerbations, placebo 56.0",58.3%
same,Number of Patients Exacerbation-free,[3]; Level 2 and 3 Exacerbations,354
same,Estimated Percentage Exacerbation-Free (Exacerbation-free Survival Rate),"[3]; Level 2 and 3 Exacerbations, placebo 71.0",70.9%
CCCCn1c(=O)c2c(ncn2CC(C)=O)n(CCCC)c1=O [denbufylline],side effects,[4],"pyrosis, nausea and emesis"
COc1ccc(C2CNC(=O)C2)cc1OC1CCCC1 (stereo not drawn) [rolipram],side effects in clinical studies,[5],"psychotropic activity; also recorded: gastrointestinal effects, e.g., pyrosis, nausea and emesis"
